The results in this text go back to patent US9102675B2, “3-Cyanoaryl-1H-pyrrolo[2,3-B] pyridine derivatives” (MERCK PATENT GMBH, priority 2011, dated 2015).

SMILES strings stand for the structures.

One test deals with TBK1 + IKKε. In words: TBK1 + IKKε cell assay: dose response inhibition of phospho-IRF3 @ Ser 386 in MDA-MB-468 cells after poly(I:C) stimulation. To be noted: Homo sapiens, MDA-MB-468, MDA-MB-468 cells, nuclear phospho-IRF3 Ser386, read-out: TBK1 + IKKε cell assay IC50. In kind it is cell-based. From the text: Dose response inhibition of phospho-IRF3 @ Ser 386 cell/MDAMB468/INH/PHOS/IMAG/pIRF3
Although TBK1 and IKKε are mainly known as key substances in the innate immune response, recent findings have indicated a role for TBK1 and IKKε in Ras-induced oncogenic transformation. TBK1 was identified as RaIB effector in the Ras-like (RaI)-guanine nucleotide exchange factor (GEF) pathway that is required for Ras-induced transformation. TBK1 directly activates IRF3 which, on phosphorylation, homodimerises and translocates to the nucleus, where it activates processes associated with inflammation, immune regulation, cell survival and proliferation.
This assay has been developed in order to assess the efficacy/potency of TBK1/IKKε inhibitor compounds based on the immunocytochemical detection of nucleus-localised phospho-IRF3, a target directly downstream of TBK1. Treatment with polyinosine-polycytidylic acid (poly(I:C), a synthetic analogue of double-stranded RNA (dsRNA), a molecular pattern associated with viral infection and recognised by Toll-like receptor 3 (TLR3) is used to induce TBK1/IKKε activity and IRF3 phosphorylation at Ser386.
Day 1: MDA-MB-468 cells are detached using HyQ-Tase, counted and sown into a 384-well plate with TC surface and clear bottom in a density of 10,000 cells per well in a total volume of 35 μl of complete medium. Alternatively, the cells are sown directly from frozen glass vials.
Day 2: The cells are pre-treated with inhibitor compounds for 1 h prior to poly(I:C) stimulation. After incubation for 2 h with poly(I:C), the cells are fixed in (para)formaldehyde (PFA) and permeabilised using methanol (MeOH). The cells are then blocked and incubated with an anti-pIRF3 antibody at 4° C. overnight.
Day 3: The primary antibody is washed off, an AlexaFluor488-conjugated secondary antibody is added, the cells are contrast-stained with propidium iodide, followed by image acquisition on an IMX ultra-high content reader.
Plating medium=culture medium: • RPMI 1640, Invitrogen #31870 • 10% of FCS, Invitrogen #10270-106 • 2 mM Glutamax, Invitrogen #35050-038 • 1 mM sodium pyruvate, Invitrogen #11360 • 1% of Pen/Strep • 37° C., 5% of CO2
Plates: 384-well bottom cell culture plates with black/clear bottom, Falcon #35 3962 or Greiner #781090
Subcultivation: HyQ-Tase, Thermo Scientific (HyClone) # SV30030.01
Poly(I:C) (LMW), Invitrogen # tlrl-picw (prepare 20 mg/ml stock solution in sterile PBS, denature 30 min 55° C. in a water bath, slowly cool to RT, store at −20° C. in aliquots)
a 10-point dose-response curve with MSC2119074A-4=BX-795 is included in each experiment
Formaldehyde (methanol-free, 16%, ultrapure EM grade), Polysciences #18814 (storage RT), final conc.: 4%
Goat serum, PAA # B15-035 (storage 4° C., long term −20° C.), final conc.: 10%
BSA (IgG- and protease-free, 30%), US-Biological # A1317 (storage 4° C., long term −20° C.), final conc.: 2%
Tween 20 detergent, Calbiochem #655204 (storage RT), (prepare 10% stock solution in water; final conc.: 0.1%)
Anti-pIRF-3 rabbit mAb, Epitomics #2526-B (storage −20° C.), final conc.: 1:2000 in PBS/2% of BSA
Alexa Fluor goat-anti-rabbit-488, Invitrogen # A11034 or # A11008 (storage 4° C., dark), final conc.: 1:2000 in PBS/2% of BSA/0.1% of Tween
Propidium iodide (PI), Fluka #81845, 1 mg/ml in H2O (storage 4° C., dark), final conc.: 0.2 μg/ml
(1) Sow 10,000 cells/well/35μof complete RPMI +10% FCS into 384-well bottom cell culture plates with black / clear bottom,
(2) Incubate for 2 h at room temperature on the bench, followed by further incubation for 22 h at 37° C., 5% of CO2 and 90% RH. […]
`N#Cc1cc(-c2c[nH]c3ncccc23)ccc1OC1CCOCC1` [Compound A1, 5-(1H-pyrrolo[2,3-b]pyridin-3-yl)-2-tetrahydropyran-4-yloxybenzonitrile]: the IC50 was 3000 to 50000 nM.

For `Cn1cc(-c2cnc3[nH]cc(-c4ccc(OC5CCOCC5)c(C#N)c4)c3c2)cn1` [Compound A4, 5-[5-(1-methylpyrazol-4-yl)-1H-pyrrolo[2,3-b]pyridin-3-yl]-2-tetrahydropyran-4-yloxybenzonitrile], the IC50 was in the range of 300 to 3000 nM. Regarding `N#Cc1cc(-c2c[nH]c3ncc(-c4cnn(CCN5CCOCC5)c4)cc23)ccc1OC1CCOCC1` [Compound A7, 5-[5-[1-(2-morpholinoethyl)pyrazol-4-yl]-1H-pyrrolo[2,3-b]pyridin-3-yl]-2-tetrahydropyran-4-yloxybenzonitrile], the IC50 is 300 to 3000 nM.

Consider `N#Cc1cc(-c2c[nH]c3ncc(-c4ccc(N5CCOCC5)cc4)cc23)ccc1OC1CCOCC1` [Compound A8, 5-[5-(4-morpholinophenyl)-1H-pyrrolo[2,3-b]pyridin-3-yl]-2-tetrahydropyran-4-yloxybenzonitrile], for which the IC50 lay within 3000 to 50000 nM. On the same count and under the same terms, in the case of `N#Cc1cc(-c2c[nH]c3ncc(-c4cnn(CCN5CCCC5)c4)cc23)ccc1OC1CCOCC1` [Compound A9, 5-[5-[1-(2-pyrrolidin-1-ylethyl)pyrazol-4-yl]-1H-pyrrolo[2,3-b]pyridin-3-yl]-2-tetrahydropyran-4-yloxybenzonitrile] it was 300 to 3000 nM; in that of `COCCn1cc(-c2cnc3[nH]cc(-c4ccc(OC5CCOCC5)c(C#N)c4)c3c2)cn1` [Compound A10, 5-[5-[1-(2-methoxyethyl)pyrazol-4-yl]-1H-pyrrolo[2,3-b]pyridin-3-yl]-2-tetrahydropyran-4-yloxybenzonitrile], less than 300 nM; in that of `N#Cc1cc(-c2c[nH]c3ncc(-c4cnn(C5CCNCC5)c4)cc23)ccc1OC1CCOCC1` [Compound A12, 5-[5-(1-piperidin-4-yl-1H-pyrazol-4-yl)-1H-pyrrolo[2,3-b]pyridin-3-yl]-2-(tetrahydropyran-4-yloxy)benzonitrile], 300 to 3000 nM. Still for that read-out and setting: in the case of `CN1CCC(Oc2ccc(-c3c[nH]c4ncc(-c5cnn(C)c5)cc34)cc2C#N)CC1` [Compound A13, 2-(1-methylpiperidin-4-yloxy)-5-[5-(1-methyl-1H-pyrazol-4-yl)-1H-pyrrolo[2,3-b]pyridin-3-yl]benzonitrile] it was 3000 to 50000 nM; in that of `N#Cc1cc(-c2c[nH]c3ncc(-c4cnn(CCO)c4)cc23)ccc1OC1CCOCC1` [Compound A15, 5-[5-[1-(2-hydroxyethyl)pyrazol-4-yl]-1H-pyrrolo[2,3-b]pyridin-3-yl]-2-tetrahydropyran-4-yloxybenzonitrile], less than 300 nM; in that of `CN1CCC(n2cc(-c3cnc4[nH]cc(-c5ccc(OC6CCOCC6)c(C#N)c5)c4c3)cn2)CC1` [Compound A16, 5-[5-[1-(1-methyl-4-piperidyl)pyrazol-4-yl]-1H-pyrrolo[2,3-b]pyridin-3-yl]-2-tetrahydropyran-4-yloxybenzonitrile], less than 300 nM. For the compound `CN1CCN(c2cnc3[nH]cc(-c4ccc(OC5CCOCC5)c(C#N)c4)c3c2)CC1` [Compound A17, 5-[5-(4-methylpiperazin-1-yl)-1H-pyrrolo[2,3-b]pyridin-3-yl]-2-tetrahydropyran-4-yloxybenzonitrile], the half-maximal inhibitory concentration (IC50) fell in the range of 3000 to 50000 nM. On the same count and under the same terms, in the case of `N#Cc1cc(-c2c[nH]c3ncc(-c4cnn(C5CCNCC5)c4)cc23)cnc1OC1CCOCC1` [Compound A18, 5-[5-[1-(4-piperidyl)pyrazol-4-yl]-1H-pyrrolo[2,3-b]pyridin-3-yl]-2-tetrahydropyran-4-yloxypyridine-3-carbonitrile] it was 300 to 3000 nM; in that of `N#Cc1cc(-c2c[nH]c3ncc(OCCN4CCOCC4)cc23)ccc1OC1CCOCC1` [Compound A21, 5-[5-(2-morpholinoethoxy)-1H-pyrrolo[2,3-b]pyridin-3-yl]-2-tetrahydropyran-4-yloxybenzonitrile], 300 to 3000 nM. On to `CC1(COc2ccc(-c3c[nH]c4ncc(-c5cnn(C6CCNCC6)c5)cc34)cc2C#N)COC1` [Compound A24, 2-[(3-Methyloxetan-3-yl)methoxy]-5-[5-[1-(4-piperidyl)pyrazol-4-yl]-1H-pyrrolo[2,3-b]pyridin-3-yl]-benzonitrile], for which the IC50 was 300 to 3000 nM. Turning to `N#Cc1cc(-c2c[nH]c3ncc(-c4cnn(C5COC5)c4)cc23)ccc1OC1CCOCC1` [Compound A26, 5-[5-[1-(Oxetan-3-yl)pyrazol-4-yl]-1H-pyrrolo[2,3-b]-pyridin-3-yl]-2-tetrahydropyran-4-yloxybenzonitrile], the IC50 is less than 300 nM. Still for that read-out and setting: in the case of `N#Cc1cc(-c2c[nH]c3ncc(-c4cn(CCN5CCCC5)nn4)cc23)ccc1OC1CCOCC1` [Compound A27, 5-[5-[1-(2-Pyrrolidin-1-ylethyl)triazol-4-yl]-1H-pyrrolo-[2,3-b]pyridin-3-yl]-2-tetrahydropyran-4-yloxybenzo-nitrile] it was 300 to 3000 nM. For the compound `Cn1cc(-c2cnc3[nH]cc(-c4cnc(OC5CCOCC5)c(C#N)c4)c3c2)cn1` [Compound A30, 5-[5-(1-Methylpyrazol-4-yl)-1H-pyrrolo[2,3-b]pyridin-3-yl]-2-tetrahydropyran-4-yloxypyridine-3-carbonitrile], the half-inhibitory concentration (IC50) was in the range of 300 to 3000 nM. On the same count and under the same terms, in the case of `Cn1cc(-c2cnc3[nH]cc(-c4ccc(OC5COC5)c(C#N)c4)c3c2)cn1` [Compound A31, 5-[5-(1-methyl-1H-pyrazol-4-yl)-1H-pyrrolo[2,3-b]pyridin-3-yl]-2-(oxetan-3-yloxy)benzonitrile] it was 3000 to 50000 nM. Still for that read-out and setting: the result for `Cn1cc(-c2cnc3[nH]cc(-c4ccc(OCC5(C)COC5)c(C#N)c4)c3c2)cn1` [Compound A32, 2-(3-methyloxetan-3-ylmethoxy)-5-[5-(1-methyl-1H-pyrazol-4-yl)-1H-pyrrolo[2,3-b]pyridin-3-yl]benzonitrile] reads 300 to 3000 nM; that for `N#Cc1cc(-c2c[nH]c3ncc(-c4cnn(CCN5CCCC5)c4)cc23)cnc1OC1CCOCC1` [Compound A33, 5-{5-[1-(2-Pyrrolidin-1-ylethyl)-1H-pyrazol-4-yl]-1H-pyrrolo[2,3-b]pyridin-3-yl}-2-(tetrahydropyran-4-yl-oxy)nicotinonitrile], 300 to 3000 nM. On the same count and under the same terms, the result for `N#Cc1cc(-c2c[nH]c3ncc(-c4cnn(C5COC5)c4)cc23)ccc1OC1COC1` [Compound A34, 2-(oxetan-3-yloxy)-5-[5-(1-oxetan-3-yl-1H-pyrazol-4-yl)-1H-pyrrolo-[2,3-b]pyridin-3-yl]benzonitrile] reads 3000 to 50000 nM.

The test is the same for the next values; noted with them: MDA-MB-468 cells, nuclear phospho-IRF3 Ser386, read-out: TBK1 + IKKε cell assay IC50.
On to `CN1CCC(n2cc(-c3cnc4[nH]cc(-c5ccc(OC6CCOCC6)c(C#N)c5)c4c3)cn2)CC1` [Compound A20, 5-[5-[1-(1-methyl-4-piperidyl)pyrazol-4-yl]-1H-pyrrolo[2,3-b]pyridin-3-yl]-2-tetrahydropyran-4-yloxybenzonitrile], for which the IC50 is 300 to 3000 nM. Take `N#Cc1cc(-c2c[nH]c3ncc(-c4cn(C5CCNCC5)nn4)cc23)ccc1OC1CCOCC1` [Compound A22, 5-[5-[1-(4-piperidyl)triazol-4-yl]-1H-pyrrolo[2,3-b]pyridin-3-yl]-2-tetrahydropyran-4-yloxybenzonitrile]: the 50% inhibitory concentration (IC50) was 300 to 3000 nM. On the same count and under the same terms, in the case of `CN1CCC(n2cc(-c3cnc4[nH]cc(-c5ccc(OC6CCOCC6)c(C#N)c5)c4c3)nn2)CC1` [Compound A23, 5-[5-[1-(1-methyl-4-piperidyl)triazol-4-yl]-1H-pyrrolo[2,3-b]pyridin-3-yl]-2-tetrahydropyran-4-yloxybenzonitrile] it was 300 to 3000 nM.
